According to patent publication US4753949A, “2-chloronicergoline having antihypoxic activity” (Richter Gedeon Vegyeszeti Gyar Rt., priority 1985, dated 1988):
pIC50: −log10 of the molar value.

Experiments:
D-2 receptor = target: T1, D-2 receptor (Rattus norvegicus, UniProt P61169); experiment: D-2 receptor binding (3H-spiroperidol); parameters: species or system Hannover Wistar rats; conditions: for pIC50: rat striatum, 0.5 nmole 3H-spiroperidol, 37° C., 15 min, pH 7.4
T1 construct: the striatum from their cortex was prepared; from tissue; host or cells: striatum membranes of Hannover Wistar rats
T1 sequence (P61169 whole entry): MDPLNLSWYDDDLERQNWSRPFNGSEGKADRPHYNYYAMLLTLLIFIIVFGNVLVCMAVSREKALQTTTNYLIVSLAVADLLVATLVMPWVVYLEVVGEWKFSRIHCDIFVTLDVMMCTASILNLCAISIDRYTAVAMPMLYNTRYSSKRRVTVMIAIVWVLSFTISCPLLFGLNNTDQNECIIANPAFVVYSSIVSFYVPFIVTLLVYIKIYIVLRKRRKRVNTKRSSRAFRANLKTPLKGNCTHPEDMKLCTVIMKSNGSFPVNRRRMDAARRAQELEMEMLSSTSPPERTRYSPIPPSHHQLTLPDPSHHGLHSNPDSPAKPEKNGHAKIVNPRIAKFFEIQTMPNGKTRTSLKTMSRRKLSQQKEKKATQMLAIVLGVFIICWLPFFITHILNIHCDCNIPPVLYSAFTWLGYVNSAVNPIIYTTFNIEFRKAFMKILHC
Protocol: Investigation of the D-2 receptor binding
Hannover Wistar rats were decapitated and the striatum from their cortex was prepared. The striata were homogenized in a 10-fold volume of a cold buffer solution (50 mmoles of TRIS HCl, 120 mmoles of NaCl, 2 mmoles of KCl, 1 mmole of MgCl2 and 5 mmoles of CaCl2 at pH 7.4) and centrifuged at 45000 g for 15 minutes.
For investigating the D-2 receptor binding, a membrane preparation, a buffer, a ligand (0.5 nmole of ^3 H-spiroperidol) and the compound to be tested in a defined concentration were used in a total volume of 2 ml.

α2-adrenergic receptor [1] = target: T2, α2-adrenergic receptor (Rattus norvegicus, UniProt P22909); conditions: versus nicergoline
T2 sequence (P22909 1-465): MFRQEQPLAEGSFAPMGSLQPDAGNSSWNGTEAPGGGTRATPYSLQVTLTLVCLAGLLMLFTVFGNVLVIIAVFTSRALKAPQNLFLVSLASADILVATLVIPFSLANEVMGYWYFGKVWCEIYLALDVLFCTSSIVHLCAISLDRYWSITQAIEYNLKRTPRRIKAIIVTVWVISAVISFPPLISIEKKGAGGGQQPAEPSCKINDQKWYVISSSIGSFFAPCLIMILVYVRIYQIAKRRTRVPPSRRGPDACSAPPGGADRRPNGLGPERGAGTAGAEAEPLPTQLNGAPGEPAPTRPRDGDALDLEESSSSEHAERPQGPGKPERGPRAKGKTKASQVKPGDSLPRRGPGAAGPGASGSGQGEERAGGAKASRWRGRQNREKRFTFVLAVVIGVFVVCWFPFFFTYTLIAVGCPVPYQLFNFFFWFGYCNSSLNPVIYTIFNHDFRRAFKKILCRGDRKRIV
Protocol: (§3) For the determination of the non-specific binding, 10 μmoles of phentolamine were used. Investigation of the α2 -adrenergic receptor binding
(§4) Hannover Wistar rats were decapitated, their cortexes were prepared and homogenized in a 30-fold volume of a buffer solution (50 μmoles of TRIS HCl, at pH 7.4). The membrane was centrifuged at 45000 g twice for 15 minutes and then suspended in the buffer in a concentration of 50 ml/g (in a protein concentration of 0.9 to 1.0 mg/ml).
(§5) For investigating the α2 -receptor binding, a membrane preparation, a ligand (1.0 nmole of ^3 H Rx 781094=^3 H-1 dazoxane) and the compound to be tested were used in a total volume of 1 ml. After an incubation at 23° C. for 20 minutes, the samples were filtered through a Whatman GF/B filter and washed 4 times with 4 ml of buffer solution each.
(§6) For the determination of the non-specific binding, 10 μmoles of phentolamine were used.

[2] = Learning-facilitating effect: one-trial passive avoidance; format: in vivo, mice (CFLP); conditions: for Facilitation of learning, avoidance latency period as % of the control: 5.0 mg/kg p.o., mice, retest after one week, control latency 164.0 ± 34.4 sec (nicergoline), 77.0 ± 16.4 sec (2-chloronicergoline)
Protocol: (§1) The studies were carried out on male SHR rats weighing 160 to 180 g as well as on CFLP mice of both sexes weighing 18 to 21 g. The compounds to be tested were orally administered in a volume of 5 ml/kg of body-weight (in the case of rats) or in a volume of 10 ml/kg of body-weight (in case of mice) at the 60th minute before beginning the experiment.
(§2) The results are expressed as percentages.
Investigation of the learning-facilitating effect
[W. B. Essmann and H. Alpern: Psychol. Rep. 41, 731 (1964)]
Mice (n=10) were treated with 5 mg/kg doses of the compounds to be tested, then the animals were conditioned by the one-trial passive avoidance method. The animals were placed on the platform of the test box, whereupon after entering into the dark box, they received an electric footshock (1.5 mA, 0.3 sec). One week later, the animals were retested: the mean of the latency period of the entering (avoidance) was compared to the control value and expressed as the percentage thereof.

α1-adrenergic receptor = α1-adrenergic receptor binding (3H-prazosine); parameters: species or system Hannover Wistar rats; conditions: for IC50 value of α-adrenergic receptor activity (in words) / α-adrenergic receptor activity compared between 2-chloronicergoline and nicergoline (in words): Table 2 discussion; for pIC50: rat cortex membrane, 0.5 nmole 3H-prazosine, 23° C., 30 min, pH 8
α2-adrenergic receptor [3] = target: T2, α2-adrenergic receptor; experiment: biochemical
Protocol: as §3, §4, §5, §6

[4] = Antagonism of the acquisition-inhibitory effect of hypoxia (shuttle box, normobaric hypoxia, 6% O2); format: in vivo, rats (male SHR); conditions: for Antagonism of the acquisition-inhibitory effect of hypoxia, CAR Δ %: rats, third day, 6% O2
Protocol: as §1, §2
Antagonism of the acquisition-inhibitory effect of hypoxia
Rats (n=4) were daily treated with various doses of the compounds to be tested, then conditioned in an automatic six-channel shuttle box (VKI) for 3 days [with the following parameters: 50 cycles/day, 15 seconds intersignal period, 15 seconds light stimulus, 10 seconds light and electric footshock (0.8 mA)] under normobaric hypoxic conditions (6% O2). The values of the conditioned avoidance responses on the third day were expressed as the percentage of the deviation from the control value (CAR Δ%).

[5] = Antihypoxic effect: survival time under hypobaric hypoxic conditions (170 mmHg); format: in vivo, rats (male SHR); conditions: for Antihypoxic effect, survival time as % of the control: rats, 60 min before, control 3.3 ± 0.19 min
Protocol: as §1, §2
Investigation of the antihypoxic effect
[I. Baumel et al.: Proc. Soc. Exp. Ther. Biol. N.Y. 132, 629 (1969]
Rats (n=5) were treated with various doses of the compounds to be tested and after 60 minutes the survival time was measured under hypobaric hypoxic conditions (170 mmHg). In the Table, the survival time is expressed as the percentage of that of the control group.

[6] = tested on: 45Ca2+ uptake into synaptosomes; experiment: 45Ca2+ uptake into synaptosomes; format: biochemical; conditions: rat brain cortex synaptosomes, K+ (45 mmoles) induced, 37° C., pre-incubation 20 min; read-out: IC50 45Ca2+ (synaptosomal uptake)
Protocol: Investigation of the ^45 Ca^2+ uptake into synaptosomes
The synaptosomal fraction was prepared from rat brain cortex according to the method of Wu et al. [J. Neurochem. 39, 700 (1982)], with a protein content of 20 mg/ml.
For the experiment, a buffer solution (112 mmoles of NaCl, 5 mmoles of KCl, 1.3 mmoles of MgCl2, 1.2 mmoles of NaH2 PO4, 1.2 mmoles of CaCl2, 10 mmoles of glucose and 20 mmoles of TRIS adjusted to pH 7 by carbogen at 37° C.) was used. The mixture containing the buffer solution, the compound to be tested and 1 mg of synaptosomes in a total volume of 1 ml was pre-incubated at 37° C. for 20 minutes and then, the K^+ (45 mmoles) induced ^45 Ca^2+ […] and, for control, the Na^+ (45 mmoles) induced ^45 Ca^2+ uptake were measured. The reaction was stopped by adding 5 ml of a buffer solution (120 mmoles of NaCl, 5 mmoles of KCl, 5 mmoles of EGTA and 20 mmoles of TRIS, at pH 7.4). […] The radioactivity remaining on the filter was determined in 10 ml of scintillation solution.

[7] = literature; cited from earlier work
α-adrenergic receptor = conditions: Bernardi et al. 1975; cited from earlier work

| Structure (SMILES) | pIC50 (D-2 receptor) | Selectivity ratio D-2/α1 (D-2 receptor; ratio of IC50 values) [nmole/nmole] | D-2 receptor activity, times lower than that of nicergoline (D-2 receptor; versus nicergoline) [times] | α2-adrenoceptor activity, times as high as that of nicergoline (α2-adrenergic receptor [1]) | Facilitation of learning, avoidance latency period as % of the control [2] [%] | learning-facilitating effect compared with nicergoline (in words) ([2]; same doses, versus nicergoline) | IC50 value of α-adrenergic receptor activity (in words) (α1-adrenergic receptor) | α-adrenergic receptor activity compared between 2-chloronicergoline and nicergoline (in words) (α1-adrenergic receptor) | pIC50 (α1-adrenergic receptor) | α-adrenoceptor selectivity (in words) (α1-adrenergic receptor; shown by D-2/α1 selectivity ratio) | pIC50 (α2-adrenergic receptor [3]) | Antagonism of the acquisition-inhibitory effect of hypoxia, CAR Δ % ([4]; 2.5 mg/kg p.o.) [%] | dose normalizing deteriorated performance under normobaric hypoxia, times lower than that of nicergoline ([4]; versus nicergoline) [times] | hypoxic tolerance (in words) ([5]; 1.0 mg/kg) | Antihypoxic effect, survival time as % of the control ([5]; 1.0 mg/kg p.o.) [%] | Antihypoxic effect, survival time as % of the control ([5]; 2.5 mg/kg p.o.) [%] | pIC50 [6] | vasodilatory effect (in words) [7] | Antagonism of the acquisition-inhibitory effect of hypoxia, CAR Δ % ([4]; 10.0 mg/kg p.o.) [%] | α-adrenerg blocking effect (in words) (α-adrenergic receptor) |
| --- | --- | --- | --- | --- | --- | --- | --- | --- | --- | --- | --- | --- | --- | --- | --- | --- | --- | --- | --- | --- |
| CO[C@]12C[C@@H](COC(=O)c3cncc(Br)c3)CN(C)[C@@H]1Cc1c(Cl)n(C)c3cccc2c13 [2-Chloronicergoline, 2-chloronicergoline] | 6.06 | 92.3 | 12 | about 13 times | 182 | significantly better than that of nicergoline | low | practically identical | 8.02 | pronounced | 7.62 | 150 | 4 | significantly increased | 155 | 276 | 5.15 |  |  |  |
| CO[C@]12C[C@@H](COC(=O)c3cncc(Br)c3)CN(C)[C@@H]1Cc1cn(C)c3cccc2c13 [Nicergoline, 1,6-dimethyl-10α-methoxyergoline-8β-methanol 5-bromonicotinate] | 7.15 |  |  |  | 131 |  | low | practically identical | 8.28 |  | 6.75 |  |  |  | 103 | 109 | 4.57 | peripheral vasodilatory agent | 150 |  |
| CO[C@]12C[C@@H](COC(=O)c3cncc(Br)c3)CN(C)[C@@H]1Cc1c(Br)n(C)c3cccc2c13 [2-bromonicergoline] |  |  |  |  |  |  |  |  |  |  |  |  |  |  |  |  |  | vasodilatory |  | α-adrenerg blocking effect |
